According to US6846182B1, “Dental bleaching composition and method” (priority 1996, dated 2005):

Description: Fluoride has been used in dentistry to reduce sensitivity for many years. Often, when the root surface of teeth is exposed to the oral cavity due to gingival recession, these teeth become sensitive to hot, cold and sometimes sweets. […] This post bleaching pain usually has an onset of about 2 hours post-bleaching and lasts for 2 or more days.

Substance: neutral sodium fluoride
- post-bleaching pain level (applied 5 minutes post bleaching): often diminished
- post-bleaching sensitivity (applied at least 10 minutes after bleaching is completed): almost completely eliminated
